Legend:
[1] = tested on: HFFs; test: MTT cell viability assay; format: cell-based, Human
Method: MTT assay (Sigma-Aldrich) was performed to rule out any cytotoxicity induced by MDP treatment. Cells (HFFs and transduced GIPZ/shIFNβ-HFFs as described below) were pretreated with MDP for 96- and 72 h, respectively and 20 μl/well of MTT [3-(4, 5-Dimethyl-2-thiazolyl)-2, 5-diphenyl-2H-tetrazolim bromide, 5 mg/mL in phosphate buffered saline (PBS)] was added to each well. After shaking plates at 150 rpm for 5 minutes the plates were incubated at 37° C. for 3 hours. Conversion of yellow solution to dark blue formazan by mitochondrial dehydrogenases of living cells was quantified by measuring absorbance at 560 nm.

[2] = tested on: HCMV proteins (IE1/2, pp65); test: Western blot of HCMV proteins in infected HFFs; format: cell-based, human cytomegalovirus
Method: (§1) Cell lysates containing equivalent amount of proteins were mixed with an equal volume of sample buffer (125 mM Tris-HCL, pH 6.8, 4% SDS, 20% glycerol and 5% β-mercaptoethanol) and boiled at 100° C. for 10 min. Denatured proteins were resolved in Tris-glycine polyacrylamide gels (10-12%) and transferred to polyvinylidine difluoride (PVDF) membranes (Bio-Rad Laboratories, Hercules, Calif.) by electroblotting. Membranes were incubated in blocking solution [5% w/v non-fat dry milk and 0.1% Tween-20 in PBS (PBST)] for 1 h, washed with PBST, and incubated with antibody at 4° C. overnight. Membranes were washed with PBST and incubated with horseradish peroxidase-conjugated secondary antibodies in PBST for 1 h at room temperature. Following washing with PBST, protein bands were visualized by chemiluminescence using SuperSignal West Dura and Pico reagents (Pierce Chemical, Rockford, Ill.). Antibodies for HCMV proteins were used at 1:2000 and included: mouse monoclonal anti-HCMV IE1 & IE2 (MAB810, Millipore, Billerica, Mass.), mouse monoclonal anti-HCMV UL83 (pp65, Vector Laboratories Inc., Burlingame, Calif.), and mouse monoclonal anti-pp52 (UL44, Santa Cruz Biotechnology, Santa Cruz, Calif.). Rabbit polyclonal anti human-NOD2 antibody (H-300, 1:2000), rabbit polyclonal anti-RIPK2 (1:5000), mouse monoclonal anti-NF-KB (p65, 1:1000), rabbit polyclonal anti-IRF3 (1:1000) and mouse monoclonal anti-IRF7 (1:1000) were from Santa Cruz. Rabbit monoclonal anti-Histone H3 (1:2000), rabbit monoclonal anti-pERK1/2 (1:5000), mouse monoclonal anti-total ERK (1:2000), rabbit monoclonal anti-pIκBα (1:2000), mouse monoclonal anti-IκBα, rabbit monoclonal anti-pTBK1 (Ser172), and rabbit monoclonal anti-TBK1 (1:1000) were from Cell Signaling Technology, Beverly, Mass. Horseradish peroxidase (HRP)-conjugated anti-rabbit IgG was from Cell Signaling. […]
Quantitative analysis of proteins detected by immunoblotting was performed using ImageJ 1.48v software (NIH) by determining relative band intensities of individual bands. […]

[3] = tested on: TANK-binding kinase (TBK1); test: Western blot of NOD2 downstream signaling proteins; format: cell-based, Human; conditions: HCMV-infected, MOI 0.1, MDP treatment, 36 hpi
Method: as §1, with “Calif.).” for “Calif.). Rabbit polyclonal anti human-NOD2 antibody (H-300, 1:2000), rabbit polyclonal anti-RIPK2 (1:5000), mouse monoclonal anti-NF-KB (p65, 1:1000), rabbit polyclonal anti-IRF3 (1:1000) and mouse monoclonal anti-IRF7 (1:1000) were from Santa Cruz. Rabbit monoclonal anti-Histone H3 (1:2000), rabbit monoclonal anti-pERK1/2 (1:5000), mouse monoclonal anti-total ERK (1:2000), rabbit monoclonal anti-pIκBα (1:2000), mouse monoclonal anti-IκBα, rabbit monoclonal anti-pTBK1 (Ser172), and rabbit monoclonal anti-TBK1 (1:1000) were from Cell Signaling Technology, Beverly, Mass. Horseradish peroxidase (HRP)-conjugated anti-rabbit IgG was from Cell Signaling.”

[4] = tested on: HCMV Towne; test: Plaque reduction assay in HFFs, HCMV Towne; format: cell-based, human cytomegalovirus
Method: A plaque reduction assay was performed in HFFs to determine the effects of MDP treatment either before or after infection on virus replication. HFFs were seeded into 12-well plates (2×10^5 cells/well) and infected with Towne HCMV at approximately 100 plaques/well. After 90 minutes, media were aspirated, and DMEM containing 0.5% carboxymethyl-cellulose (CMC), 4% fetal bovine serum (FBS), and MDP at final concentration of 10 μg/mL were added into duplicate wells. In pretreatment experiments HFFs were first treated with MDP (10 μg/mL) for 72 h after which infection with the Towne or TB40 strains was carried out at approximately 100 plaques/well. After 90 minute adsorption, media were aspirated, and DMEM containing 0.5% CMC and 4% FBS were added into duplicate wells. After incubation at 37° C. for 8 days (Towne) or 10 days (TB40) the overlay was removed and plaques were counted after crystal violet staining.

[5] = tested on: IL8 mRNA; test: qRT-PCR of IL8 mRNA in HFFs; format: cell-based, Human
Method: Total RNA was isolated from cells using RNAeasy Mini kit (Qiagen, Georgetown, Md.) according to manufacturer's instructions. RevertAid first strand cDNA synthesis kit (Fermentas life sciences, Cromwell Park, Md.) was used to synthesize first strand cDNA from total RNA using oligo-dT primers. Negative reverse-transcriptase (−RT) reactions were included to ensure the specificity of qRT-PCR reactions. Synthesis of first strand cDNA from mRNA template was carried out at 42° C. for 1 h. Quantitative RT-PCR was performed using specific primers and SYBR green (Fermentas life science) with two-step cycling protocol (95° C. for 15 s, 60° C. for 1 min). All reactions were performed in triplicates and GAPDH was used as internal control. The expression level of the tested genes was normalized to the expression of GAPDH.

With `CC(=O)N[C@H]1C(O)O[C@H](CO)[C@@H](O)[C@@H]1O[C@H](C)C(=O)N[C@@H](C)C(=O)N[C@H](CCC(=O)O)C(N)=O` (mixture of isomers) [MDP, Muramyl dipeptide] the “cellular toxicity (MTT)” value ([1]; HFFs treated 96 h) was “no toxicity at any of the concentrations used”, the “toxicity / cell growth (MTT)” value ([1]; control GIPZ or shIFN-β KD HFFs, MDP 10 μg/mL 72 h) was “No toxicity or difference in cell growth” and the “decrease in pp65 expression” value ([2]; MDP treatment after infection, MOI 0.1, 96 hpi) was “approximately 75%”. The “reduction in pp65 expression” value ([2]; MDP treatment after infection, higher MOI (MOI 1), 96 hpi) was 40%, the “HCMV replication, dose response” value ([2]; MOI 0.1, IE1/2 and pp65 expression after 4 days) was “suppressed HCMV replication (MOI 0.1) in a dose-dependent manner” and the “phosphorylation of TBK1” value [3] was “increased phosphorylation”. For the same molecule, the plaque number ([4]; MDP 10 μg/mL after infection, 100 PFU/well, counted after 8 days) was “reduced plaque number”, the plaque number reduction ([4]; MDP 10 μg/mL pretreatment 72 h, 100 PFU/well, 8 days) was “approximately 90%” and the number of plaques ([4]; control GIPZ cells, MDP pretreatment 72 h, day 8) was “significantly decreased”. For the same molecule, the “virus replication (plaque number)” value ([4]; shIFN-β cells, MDP pretreatment 72 h, day 8) was “failed to restrict virus replication”, the “increase in IL8 mRNA” value ([5]; HCMV-infected, MDP treatment, 4 hpi) was 2 fold and the “further increase of IL8 mRNA” value ([5]; MDP after infection compared to MDP or HCMV alone, irrespective of MOI) was 6-7 fold. For the same molecule, the IL8 expression induction ([5]; MDP alone, non-infected, 36 h) was 3 fold and the IL8 expression ([5]; MDP pretreatment 72 h, non-infected or HCMV-infected) was “modestly induced”.
